According to patent EP0970046B1, “N-HYDROXY-2-(ALKYL, ARYL, OR HETEROARYL SULFANYL, SULFINYL OR SULFONYL)-3-SUBSTITUTED ALKYL, ARYL OR HETEROARYLAMIDES AS MATRIX METALLOPROTEINASE INHIBITORS” (Wyeth Holdings Corporation, priority 1997, dated 1998):
Like-named read-outs stand apart in the source and are kept apart here.

Key:
Assay type in all cases: biochemical
[1] = biological target: T1, MMP 9 (Homo sapiens, UniProt P14780); assay: In Vitro Gelatinase Assay; settings: human neutrophil gelatinase B; for IC50: read-out: MMP 9 IC 50; for inhibition at 1 µM: read-out: MMP 9 % inhibition at 1 micromolar, 1 micromolar
T1 construct: from tissue; host or cells: human neutrophils
T1 sequence (P14780 94-707): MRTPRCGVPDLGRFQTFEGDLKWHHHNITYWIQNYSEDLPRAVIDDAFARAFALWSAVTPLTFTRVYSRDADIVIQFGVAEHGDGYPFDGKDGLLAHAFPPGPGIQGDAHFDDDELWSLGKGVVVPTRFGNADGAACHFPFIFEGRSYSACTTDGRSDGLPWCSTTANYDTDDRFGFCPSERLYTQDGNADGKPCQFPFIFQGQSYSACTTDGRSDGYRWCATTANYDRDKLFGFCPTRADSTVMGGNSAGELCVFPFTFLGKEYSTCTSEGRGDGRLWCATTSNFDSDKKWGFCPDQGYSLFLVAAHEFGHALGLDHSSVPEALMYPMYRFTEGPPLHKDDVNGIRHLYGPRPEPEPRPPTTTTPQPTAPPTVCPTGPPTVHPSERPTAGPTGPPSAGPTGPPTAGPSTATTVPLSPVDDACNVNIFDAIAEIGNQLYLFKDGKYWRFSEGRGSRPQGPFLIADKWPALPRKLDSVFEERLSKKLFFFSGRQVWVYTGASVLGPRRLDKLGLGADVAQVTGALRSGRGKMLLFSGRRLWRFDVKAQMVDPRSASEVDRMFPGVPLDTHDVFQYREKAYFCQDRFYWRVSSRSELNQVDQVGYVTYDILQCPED
Description: The assay is based on the cleavage of the thiopeptide substrate ((Ac-Pro-Leu-Gly(2 mercapto-4 methyl-pentanoyl)-Leu-Gly-OEt), Bachem Bioscience) by the enzyme, gelatinase, releasing the substrate product which reacts colorimetrically with DTNB ((5,5'-dithio-bis(2-nitro-benzoic acid)). The enzyme activity is measured by the rate of the color increase. The thiopeptide substrate is made up fresh as a 20 mM stock in 100% DMSO and the DTNB is dissolved in 100% DMSO as a 100 mM stock and stored in dark at room temperature. Both the substrate and DTNB are diluted together to 1 mM with substrate buffer (50 mM HEPES pH 7.5, 5 mM CaCl2) before use. […] The increase in OD405 is plotted and the slope of the line is calculated which represents the reaction rate. The linearity of the reaction rate is confirmed (r^2 >0.85). The mean (x ± sem) of the control rate is calculated and compared for statistical significance (p <0.05) with drug-treated rates using Dunnett's multiple comparison test.

[2] = biological target: MMP 13 (Homo sapiens, UniProt P45452); assay: MMP 13 inhibition (IC50 / manual assay; method not described); settings: for IC50: read-out: MMP 13 IC 50; for inhibition at 1 µM: read-out: MMP 13 % inhibition at 1 micromolar
[3] = biological target: T2, TACE (Homo sapiens, UniProt P78536); assay: Procedure for Measuring TACE Inhibition; settings: for inhibition at 1 µM: read-out: TACE % inhibition at 1 micromolar
T2 construct: purchased Immunex
T2 sequence (P78536 215-824): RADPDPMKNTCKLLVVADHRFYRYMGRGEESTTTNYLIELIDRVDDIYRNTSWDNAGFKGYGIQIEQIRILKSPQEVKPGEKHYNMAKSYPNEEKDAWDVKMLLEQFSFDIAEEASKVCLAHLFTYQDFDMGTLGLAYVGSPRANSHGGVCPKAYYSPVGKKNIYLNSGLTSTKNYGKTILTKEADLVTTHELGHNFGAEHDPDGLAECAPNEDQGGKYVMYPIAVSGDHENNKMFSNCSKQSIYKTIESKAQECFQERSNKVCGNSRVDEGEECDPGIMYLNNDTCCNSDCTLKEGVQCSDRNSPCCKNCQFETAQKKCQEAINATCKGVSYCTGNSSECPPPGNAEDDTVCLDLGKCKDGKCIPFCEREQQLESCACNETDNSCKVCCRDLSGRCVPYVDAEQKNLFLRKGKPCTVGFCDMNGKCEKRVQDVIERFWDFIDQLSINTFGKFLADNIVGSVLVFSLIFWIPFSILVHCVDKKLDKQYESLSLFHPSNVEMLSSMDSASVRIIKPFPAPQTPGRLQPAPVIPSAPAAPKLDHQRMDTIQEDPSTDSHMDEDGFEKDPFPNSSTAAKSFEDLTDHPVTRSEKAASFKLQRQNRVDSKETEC
Outline: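 Single-concentration screen: test compound at 1 µM final, 10-min room-temperature preincubation with 1 µg/mL protease in Tris pH 7.4 buffer containing glycerol. Initial rate from linear fluorescence increase (340/420 nm) over 10 min after adding 100 µM peptidyl substrate; significance versus control rate by Dunnett's test.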

[4] = biological target: T3, MMP 1 (Homo sapiens, UniProt P03956); assay: In Vitro Collagenase Assay; settings: human recombinant fibroblast collagenase; for IC50: read-out: MMP 1 IC 50; for inhibition at 1 µM: read-out: MMP 1 % inhibition at 1 micromolar, 1 micromolar
T3 construct: human recombinant fibroblast collagenase (truncated, mw= 18,828, WAR, Radnor)
T3 sequence (P03956 100-269 limits assumed): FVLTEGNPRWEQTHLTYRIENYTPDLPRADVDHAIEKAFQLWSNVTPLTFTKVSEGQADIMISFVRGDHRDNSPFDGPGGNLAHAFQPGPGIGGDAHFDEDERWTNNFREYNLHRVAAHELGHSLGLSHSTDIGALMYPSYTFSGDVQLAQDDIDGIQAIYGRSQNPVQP
Description: The assay is based on the cleavage of a peptide substrate ((Dnp-Pro-Cha-Gly-Cys(Me)-His-Ala-Lys(NMa)-NH2), Peptide International, Inc.) by collagenase releasing the fluorescent NMa group which is quantitated on the fluorometer. Dnp quenches the NMa fluorescence in the intact substrate. […] Substrate is dissolved in methanol and stored frozen in 1 mM aliquots. […] For the assay, substrate is dissolved in HCBC buffer to a final concentration of 10 µM and collagenase to a final concentration of 5 nM. Compounds are dissolved in methanol, DMSO, or HCBC. The methanol and DMSO are diluted in HCBC to < 1.0%. Compounds are added to the 96 well plate containing enzyme and the reaction is started by the addition of substrate.
The slope of the line is calculated and represents the reaction rate.
The linearity of the reaction rate is confirmed (r^2 >0.85). The mean (x ± sem) of the control rate is calculated and compared for statistical significance (p <0.05) with drug-treated rates using Dunnett's multiple comparison test.

Row | IC50 [1] | IC50 [2] | IC50 [4] | SMILES | also measured
1 | 560 nM | 34 nM |  | CC#CCC(CC#CC)(C(=O)NO)S(=O)(=O)c1ccc(F)cc1 [Example 78, 2-(4-Fluoro-benzenesulfonyl)-2-but-2-ynyl-hex-4-ynoic acid hydroxyamide] | inhibition at 1 µM [3]: 24.6%
2 | 8.8 nM | 2 nM | 519 nM | COc1ccc(S(=O)(=O)C2(C(=O)NO)CCN(Cc3cccc(OC)c3)CC2)cc1 [Example 84, 4-(4-methoxy-benzenesulfonyl)-1-(3-methoxy-benzyl)-piperidine-4-carboxylic acid hydroxyamide] | IC50 ([3]; read-out: TACE IC 50): 213 nM
3 | 63 nM | 13 nM | 1000 nM | CCCCCC#CCC(CC#CCCCCC)(C(=O)NO)S(=O)(=O)c1ccc(OC)cc1 [Example 71, 2-(4-methoxy-benzenesulfonyl)-2-oct-2-ynyl-dec-4-ynoic acid hydroxyamide] | inhibition at 1 µM [3]: 42.2%
4 |  | 170 nM | 206 nM | CCCCCC#CCC(Cc1cccnc1)(C(=O)NO)S(=O)(=O)c1ccc(F)cc1 (centres unmarked) [Example 77, 2-(4-Fluoro-benzenesulfonyl)-2-pyridin-3-ylmethyl-dec-4-ynoic acid hydroxyamide] | 
5 | 649 nM | 148 nM |  | COc1ccc(S(=O)(=O)C2(C(=O)NO)CCN(C(C)(C)C)CC2)cc1 [Example 92, 1-Tert-butyl-4-(4-methoxy-benzenesulfonyl)-piperidine-4-carboxylic acid hydroxyamide] | inhibition at 1 µM [4]: 59.6%
6 | 231 nM | 43.9 nM | 2040 nM | CCCCC[C@H](C(=O)NO)[S@+]([O-])c1ccc(OC)cc1 (stereo in doubt) [Example 81a, 2R*-(4-methoxy-phenyl-S*- sulfinyl)-heptanoic acid hydroxyamide] | 
7 | 374 nM | 33.8 nM | 4440 nM | COc1ccc(S(=O)(=O)C2(C(=O)NO)CCN(C(C)C)CC2)cc1 [Example 96, 1-Isopropyl-4-(4-methoxy-benzenesulfonyl)-piperidine-4-carboxylic acid hydroxyamide] | 
8 | 45.1 nM | 8.8 nM |  | COc1ccc(S(=O)(=O)C2(C(=O)NO)CCN(CCc3ccccc3)CC2)cc1 [Example 103, 4-(4-methoxy-benzenesulfonyl)-1-(2-phenyl-ethyl)-piperidine-4-carboxylic acid hydroxyamide] | IC50 [3]: 470 nM
9 | 29 nM | 27 nM |  | COc1ccc(S(=O)(=O)C(CCCCOc2ccccc2)(Cc2cccnc2)C(=O)NO)cc1 (centres unmarked) [Example 68, 2-(4-Methoxy-benzenesulfonyl)-6-phenoxy-2-pyridin-3-ylmethyl-hexanoic acid hydroxyamide] | IC50 ([3]; read-out: TACE IC 50): 522 nM
10 |  | 500 nM | 805 nM | CC#CCC(Cc1cccnc1)(C(=O)NO)S(=O)(=O)c1ccc(F)cc1 (centres unmarked) [Example 76, 2-(4-Fluoro-benzenesulfonyl)-2-pyridin-3-ylmethyl-hex-4-ynoic acid hydroxyamide] | 
11 |  | 90 nM | 575 nM | COc1ccc(S(=O)(=O)C(CCC(C)C)(Cc2cccnc2)C(=O)NO)cc1 (centres unmarked) [Example 69, 2-(4-Methoxy-benzenesulfonyl)-5-methyl-2-pyridin-3-ylmethyl-hexanoic acid hydroxyamide] | inhibition at 1 µM [3]: 41.3%
12 | 50.9 nM | 6.2 nM |  | CC(C)=CCC(CC=C(C)C)(C(=O)NO)S(=O)(=O)c1ccc(C)cc1 [Example 42, 5-Methyl-2-(3-methyl-but-2-enyl)-2-(toluene-4-sulfonyl)-hex-4-enoic acid hydroxyamide] | 

The next lines start with the compound.

Row | SMILES | IC50 [1] | IC50 [2] | IC50 [4] | also measured
13 | COc1ccc(SC(C(=O)NO)c2ccccc2)cc1 (centres unmarked) [Example 2, N-Hydroxy-2-(4-methoxy-phenylsulfanyl)-2-phenyl-acetamide] |  |  |  | inhibition at 1 µM [1]: 10.5%; inhibition at 1 µM [2]: 0%; IC50 ([3]; read-out: TACE IC 50): 403 nM
14 | COc1ccc(S(=O)(=O)C(C)(Cc2cccc(OCCN3CCCCC3)c2)C(=O)NO)cc1 (centres unmarked) [Example 22, N-Hydroxy-2-(4-methoxy-benzenesulfonyl)-2-methyl-3-[3-(2-piperidin-1-yl-ethoxy)-phenyl]-propionamide] | 3.2 nM | 2.5 nM | 219 nM | inhibition at 1 µM [3]: 30%
15 | COc1ccc(S(=O)(=O)C(CC=C(C)C)(Cc2ccc(OCCN3CCOCC3)cc2)C(=O)NO)cc1 (centres unmarked) [Example 24, 2-(4-Methoxy-benzenesulfonyl)-5-methyl-2-[4-(2-morpholin-4-yl-ethoxy)-benzyl]-hex-4-enoic acid hydroxyamide] | 20.9 nM | 31.3 nM | 413 nM | 
16 | CC(C(=O)O)S(=O)(=O)CCCCCCCCS(=O)(=O)C(C)C(=O)NO (centres unmarked) [Example 49, 2-[8-(1-carboxy-ethanesulfonyl)-octane-1-sulfonyl]-propionic acid hydroxyamide] |  |  |  | inhibition at 1 µM [4]: 10.1%; inhibition at 1 µM [1]: 23.7%; inhibition at 1 µM [2]: 54.6%
17 | CCCCCCC(Sc1ccc(OC)cc1)C(=O)NO (centres unmarked) [Example 37, 2-(4-Methoxy-benzenesulfanyl)-octanoic acid hydroxyamide] |  |  |  | inhibition at 1 µM [4]: 9%; inhibition at 1 µM [1]: 31.6%; inhibition at 1 µM [2]: 14.3%
18 | COc1ccc(SC(C)(CC=C(C)C)C(=O)NO)cc1 (centres unmarked) [Example 3, 2-(4-Methoxy-phenylsulfanyl)-2,5-dimethyl-hex-4-enoic acid hydroxyamide] | 309 nM | 169 nM |  | inhibition at 1 µM [3]: 27.4%
19 | COc1ccc(SC(C)(Cc2ccccc2)C(=O)NO)cc1 (centres unmarked) [Example 1, N-Hydroxy-2-(4-methoxy-phenylsulfanyl)-2-methyl-3-phenyl-propionamide] | 560 nM | 193 nM |  | inhibition at 1 µM [3]: 31.6%
20 | CCCCC(Cc1ccc(OCCN(CC)CC)cc1)(C(=O)NO)S(=O)(=O)c1ccc(OC)cc1 (centres unmarked) [Example 27, 2-[4-(2-Diethylamino-ethoxy)-benzyl]-2-(4-methoxy-benzenesulfonyl)-hexanoic acid hydroxyamide] | 106 nM | 30.1 nM | 629 nM | 
21 | CCOc1ccc(S(=O)(=O)C(C)(Cc2ccc(OCCN(CC)CC)cc2)C(=O)NO)cc1 (centres unmarked) [Example 25, N-Hydroxy-2-(4-ethoxy-benzenesulfonyl)-2-methyl-3-[4-(2-N,N-diethylamino-ethoxy)-phenyl]-propionamide] | 26.7 nM | 8 nM |  | 
22 | COc1ccc([S+]([O-])C(C)(Cc2ccccc2)C(=O)NO)cc1 (centres unmarked) [Example 5, N-Hydroxy-2-(4-methoxy-benzenesulfinyl)-2-methyl-3-phenyl-propionamide] | 7.7 nM | 4.7 nM |  | inhibition at 1 µM [3]: 25%
23 | CCCC(Cc1ccc(OCCN2CCOCC2)cc1)(C(=O)NO)S(=O)(=O)c1ccc(OC)cc1 (centres unmarked) [Example 35, 2-(4-Methoxy-benzenesulfonyl)-2-[4-(2-morpholin-4-yl-ethoxy)-benzyl]-pentanoic acid hydroxyamide] | 234 nM | 48.2 nM | 456 nM | 
24 | COc1ccc(S(=O)(=O)C(C/C=C(\C)CCC=C(C)C)(Cc2ccc(OCCN3CCOCC3)cc2)C(=O)NO)cc1 (centres unmarked) [Example 26, (4E)-2-(4-Methoxy-benzenesulfonyl)-5,9-dimethyl-2-[4-(2-morpholin-4-yl-ethoxy) - benzyl]-deca-4,8-dienoic acid hydroxyamide] | 6.3 nM | 3.2 nM | 305 nM | 
25 | CCN(CC)CCOc1ccc(CC(C)(C(=O)NO)S(=O)(=O)c2ccc(-c3ccco3)cc2)cc1 (centres unmarked) [Example 32, 3-[4-(2-Diethylamino-ethoxy)-phenyl]-2-(4-furan-2-yl-benzenesulfonyl)-N-hydroxy-2-methyl-propionamide] | 3.7 nM | 1 nM | 13.7 nM | 
26 | CCCCCCC(Sc1nccn1C)C(=O)NO (centres unmarked) [Example 39, 2-(1-methyl-1H-imidazol-2-ylsulfanyl)-octanoic acid hydroxyamide] |  |  |  | inhibition at 1 µM [4]: 29.4%; inhibition at 1 µM [1]: 35.2%; inhibition at 1 µM [2]: 26.6%
